Molecular target: T1, FLJ13397 clone-derived protein (CARP) (Homo sapiens, UniProt Q9H8M7)
T1 construct: A human full-length cDNA clone was expressed as a protein with an N-terminal His tag; His tag (pDEST17 Gateway vector) (N); made in house; host or cells: Escherichia coli BL21star(DE3)pLysS
T1 sequence (Q9H8M7 1-445): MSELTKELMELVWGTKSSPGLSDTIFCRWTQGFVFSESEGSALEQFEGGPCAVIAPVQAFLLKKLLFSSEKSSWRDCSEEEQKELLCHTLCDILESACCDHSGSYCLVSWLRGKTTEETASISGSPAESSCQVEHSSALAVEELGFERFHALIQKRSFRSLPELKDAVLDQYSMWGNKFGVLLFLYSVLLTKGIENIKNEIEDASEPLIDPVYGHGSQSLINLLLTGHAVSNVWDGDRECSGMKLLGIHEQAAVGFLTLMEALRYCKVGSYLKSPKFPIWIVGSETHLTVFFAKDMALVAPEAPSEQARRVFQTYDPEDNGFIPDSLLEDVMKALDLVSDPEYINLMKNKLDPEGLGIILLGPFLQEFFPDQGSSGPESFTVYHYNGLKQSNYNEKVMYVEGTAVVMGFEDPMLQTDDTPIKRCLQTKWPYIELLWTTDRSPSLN
Test: SEC/MS (size exclusion chromatography / mass analysis) interaction analysis between FLJ13397 clone-derived protein and compounds
Assay type: binding
Method: BP-reaction was performed on human full-length cDNA clone and the cloning vector Gateway pDONR201 by the PCR cloning method using the Invitrogen Gateway system to yield an entry clone. LR-reaction was performed on this entry clone with the destination vector pDEST17 (Gateway System) and LR Clonase at 25° C. for 60 minutes to yield an expression plasmid. Escherichia coli competent cell BL21star(DE3)pLysS were transformed with this expression plasmid, a clone incorporating the expression vector was selected, and a frozen stock was prepared. The transformant was inoculated into LB medium and precultured, after which it was transferred into SB medium and cultured to induce the expression by IPTG, and the cells were stored frozen.
A human full-length cDNA clone was expressed as a protein with an N-terminal His tag. This clone was purified using BioRobot 8000 (Qiagen) or ACTA Crystal (Amersham). […] In the purification with ACTA Crystal, affinity purification using a HisTrap HP column was followed by gel filtration purification using the Gel Filtration Column HiLoad 16/60 or a 10/30 Superdex 75 prep grade column. The purified fraction was used for interaction analysis after being subjected to SDS-PAGE to verify the estimated molecular weight and purity.
To analyze the interactions between commonly used drugs and proteins expressed from human full-length cDNA clones while keeping both the proteins and the compounds in non-modified, non-immobilized state, size exclusion chromatography (SEC) and mass analysis were used in combination (FIGS. 1 and 2). The specific procedures are shown below.
The compound-protein mixture prepared in step 1 was subjected to chromatography using an SEC column, the compound and the protein were separated by SEC, and the bound compound or compound that interacted with the protein in the protein fraction was analyzed using a mass analyzer.
Protein concentrations were measured using BCA Protein Assay (PIERCE), in consideration of the purity calculated by SDS-PAGE.
Mass analysis was performed using LCQ DECA XP (Thermoelectron) or Q-TOFmicro (Micromass), equipped with an ESI probe. The LC pump used was Agilent 1100 (Yokogawa Analytical Systems), and the autosampler used was HTC-PAL (CTC Analytics) equipped with a cooling stacker.
In the SEC method using a 384-well spin column, Unifilter 100 (Whatman), packed with 10 μL (dry volume) of Bio-Gel P6 (BIO-RAD) and swollen with milliQ water, was used as the SEC column. […] The SEC spin column was mounted on an acetonitrile-aliquoted 384-well U-bottom plate and centrifuged; the SEC spin column filtrate, which is a protein fraction, was retrieved in 50% acetonitrile. The protein precipitate produced by the acetonitrile was removed via centrifugation and filtration for protein removal; the resulting filtrate was concentrated by centrifugation and re-dissolved in 10 μL of 50% methanol to obtain a mass analysis sample. The mobile phase supplied to the mass analyzer was 0.1% formic acid/50% methanol solution in the positive ion mode, and 0.1% ammonia/50% methanol solution in the negative ion mode; these mobile phases were used at a flow rate of 40 μL/min. 2-μL of mass analysis samples were injected using an autosampler at 2-Minute intervals; the mass spectral intensity of the compound was measured to obtain the spectral intensity of the pharmaceutical compound contained in the SEC spin column filtrate (protein fraction eluted from SEC).

[1] = compound 1 μM, protein 0 μM (protein-free reference)
[2] = compound 1 μM, protein 23.75 μM
[3] = compound 10 μM, protein 0 μM (protein-free reference)
[4] = compound 10 μM, protein 23.75 μM
[5] = compound 10 μM, protein 47.5 μM
[6] = compound 100 μM, protein 0 μM (protein-free reference)
[7] = compound 100 μM, protein 23.75 μM
[8] = compound 100 μM, protein 47.5 μM
[9] = compound 250 μM, protein 0 μM (protein-free reference)
[10] = compound 250 μM, protein 23.75 μM
[11] = compound 250 μM, protein 47.5 μM

Structure (SMILES) | spectrum intensity of the extracted mass range (compound in SEC spin column filtrate) [1] | spectrum intensity of the extracted mass range (compound in SEC spin column filtrate) [2] | spectrum intensity of the extracted mass range (compound in SEC spin column filtrate) (compound 1 μM, protein 47.5 μM) | spectrum intensity of the extracted mass range (compound in SEC spin column filtrate) [3] | spectrum intensity of the extracted mass range (compound in SEC spin column filtrate) [4] | spectrum intensity of the extracted mass range (compound in SEC spin column filtrate) [5] | spectrum intensity of the extracted mass range (compound in SEC spin column filtrate) [6] | spectrum intensity of the extracted mass range (compound in SEC spin column filtrate) [7] | spectrum intensity of the extracted mass range (compound in SEC spin column filtrate) [8] | spectrum intensity of the extracted mass range (compound in SEC spin column filtrate) [9] | spectrum intensity of the extracted mass range (compound in SEC spin column filtrate) [10] | spectrum intensity of the extracted mass range (compound in SEC spin column filtrate) [11] | interaction with the FLJ13397-expressed protein (judgement) (judged from increase of spectrum intensity with doses of compound and protein)
COC(=O)Nc1nc2ccc(S(=O)(=O)c3ccccc3)cc2[nH]1 [Fenbendazole Sulfone] | 4524987 | 2681468 | 2967134 | 9471873 | 13569838 | 12568548 | 4055561 | 63176239 | 88590858 | 5180253 | 165761033 | 286102392 | 
COc1ccc(CCN2CCC(Nc3nc4ccccc4n3Cc3ccc(F)cc3)CC2)cc1 [Astemizole] | 12239048 | 16006165 | 18099237 | 13557249 | 118520633 | 36678174 | 210085727 | 1213216132 | 2237504347 | 710392964 | 1027353172 | 2019252410 | concentration-dependent interaction
c1ccc2[nH]cnc2c1 [Benzimidazole] | 2459590 | 1627696 | 1328076 | 2937731 | 1321952 | 2620286 | 3881633 | 4636579 | 4337586 | 9545633 | 10439034 | 13446649 | 
OCCOCCN1CCN(C(c2ccccc2)c2ccc(Cl)cc2)CC1 (stereo not shown) [Hydroxyzine] | 112855827 | 126033923 | 89527484 | 134387910 | 108540593 | 115214088 | 300477422 | 567712336 | 554713461 | 922692583 | 919366054 | 1073610880 | 
CCCS(=O)(=O)c1ccc2nc(NC(=O)OC)[nH]c2c1 [Albendazole Sulfone] | 1342766 | 1155288 | 761260 | 5960539 | 5481616 | 5089101 | 94575228 | 149841728 | 131428354 | 66281031 | 280956724 | 328407687 | 

Continued, values first:

spectrum intensity of the extracted mass range (compound in SEC spin column filtrate) [1] | spectrum intensity of the extracted mass range (compound in SEC spin column filtrate) [2] | spectrum intensity of the extracted mass range (compound in SEC spin column filtrate) (compound 1 μM, protein 47.5 μM) | spectrum intensity of the extracted mass range (compound in SEC spin column filtrate) [3] | spectrum intensity of the extracted mass range (compound in SEC spin column filtrate) [4] | spectrum intensity of the extracted mass range (compound in SEC spin column filtrate) [5] | spectrum intensity of the extracted mass range (compound in SEC spin column filtrate) [6] | spectrum intensity of the extracted mass range (compound in SEC spin column filtrate) [7] | spectrum intensity of the extracted mass range (compound in SEC spin column filtrate) [8] | spectrum intensity of the extracted mass range (compound in SEC spin column filtrate) [9] | spectrum intensity of the extracted mass range (compound in SEC spin column filtrate) [10] | spectrum intensity of the extracted mass range (compound in SEC spin column filtrate) [11] | interaction with the FLJ13397-expressed protein (judgement) (judged from increase of spectrum intensity with doses of compound and protein) | Structure (SMILES)
570160 | 595458 | 529117 | 525337 | 3533115 | 9671167 | 1292692 | 7303166 | 8921904 | 2449247 | 20401030 | 13559202 |  | CCCOc1ccc2nc(NC(=O)OC)[nH]c2c1 [Oxibendazole]
61442947 | 42216896 | 47595391 | 21903023 | 45510612 | 41434122 | 60344905 | 64811390 | 63585895 | 40530147 | 93902905 | 125101370 |  | c1ccc2[nH]c(-c3cscn3)nc2c1 [Thiabendazole]
495347 | 480780 | 495499 | 525296 | 777305 | 725295 | 482901 | 15054045 | 9517765 | 444136 | 32097734 | 43484997 |  | COC(=O)Nc1nc2ccc(C(=O)c3ccccc3)cc2[nH]1 [Mebendazole]

From patent publication US8153385B2, “Target protein and target gene in drug designing and screening method” (Reverse Proteomics Research Institute Co., Ltd., priority 2004, dated 2012)
